Data reported in publication PMC12117998, “First Steps toward the Design of Peptides that Influence the Intracellular Palmitoylation Machinery” (Chembiochem, 2025).
No end group written: not given here.

How the values were obtained:
HeLa cells [1] = test: Cellular uptake by flow cytometry; format: cell-based
Description: (§1) HeLa (90,000), MDA‐MB‐231 (120,000), and HFF‐1 (125,000) cells were seeded into a 24‐well plate. Cells were treated with the desired concentration of CF‐labeled peptide diluted in the appropriate serum‐free medium for 30 min at 37 °C and 5% CO2. Afterward, cells were washed once with PBS, detached from the plate using indicator‐free trypsin/EDTA and resuspended in indicator‐free culture medium. The cell mixture was measured on the Guava easyCyte flow cytometer (Merck) using the GRN‐B (520/30) detector.
CMA was synthesized and kindly provided by Azizi et al.^[ [33] ^] Cells were either treated with 20 μM CMA diluted in serum‐free media or 0.1% DMSO diluted in serum‐free media for 6 h at 37 °C with 5% CO2. Next, cells were washed once with serum‐free medium and 5 μM CF‐labeled peptides diluted in serum‐free medium were incubated for 30 min. Control cells were only treated with dimethylsulfoxide (DMSO) or 20 μM CMA.
For the preincubation assay, cells were either treated with 5 μM DC‐2 diluted in serum‐free medium or only serum‐free medium for 30 min at 37 °C and 5% CO2. Afterward, cells were washed once with serum‐free medium and treated with 5 μM CF‐labeled DC‐2 for 30 min at 37 °C and 5% CO2.
To block cell surface thiols, cells were incubated with either serum‐free medium or 1.2 mM 5,5′‐dithiobis‐(2‐nitrobenzoic acid) (Ellman's reagent, DTNB) diluted in serum‐free medium for 5 min. Next, untreated cells were treated with 1 μM of CF‐labeled DC‐2 or DC‐2dis diluted in serum‐free medium and DTNB‐pretreated cells with 1 μM of CF‐labeled DC‐2 or DC‐2dis and 1.2 mM DTNB in serum‐free medium for 30 min at 37 °C and 5% CO2 as described by Aubry et al.^[ [47] ^]

MDA‐MB‐231 = test: Cellular uptake by flow cytometry; format: cell-based; conditions: MDA‐MB‐231, 30 min, 5 μM CF‐labeled peptides, serum-free medium, 37 °C, n ≥ 3 (Figure 3E)
Description: as §1

HFF‐1 cells = test: Cell viability assay (resazurin); format: cell-based, human; conditions: HFF‐1, 24 h, CF‐labeled peptides, n = 3 (Figure 3C)
Description: HeLa (13,000), MDA‐MB‐231 (26,000), HFF‐1 (16,000) cells, mEGFP‐HRas (18,000), and SW480 and SW620 (15,000) were seeded into a 96‐well plate. Cells were treated with suitable peptide concentrations diluted in the corresponding serum‐free culture medium. After 24 h incubation under standard growth conditions, the cells were washed once with PBS. The positive control was treated for 10 min with 70% EtOH. To test the viability, cells were treated with a resazurin solution (In Vitro Toxicology Assay Kit, resazurin based, Sigma) and incubated for a further 1–2 h. The product resorufin was measured at 595 nm (λex = 550 nm) on an infinite M200 plate reader (Tecan) and normalized to the untreated negative control cells.

HeLa cells [2] = test: Live‐cell fluorescence imaging of peptide uptake; format: cell-based
Description: HeLa (40,000), MDA‐MB‐231 (30,000), or HFF1 (55,000) cells were seeded into an 8‐well ibidi. Cells were treated for 30 min with 5 μM of CF‐labeled peptide diluted in the appropriate serum‐free media. The cell nuclei were stained with the Hoechst 33342 nuclear dye for the last 10 min of the total incubation time. Afterward, cells were washed three to four times using serum‐free medium and finally, medium containing FBS was added for the microscopy. Live fluorescence microscopy analyses were performed on the LSM 980 with Airyscan 2 Inverse Confocal Laser Scanning Microscope (Carl Zeiss) on a 63X Plan‐Apochromat oil objective (NA 1.4, Zeiss) at 37 °C and 5% CO2 or on the BZ‐X810 (Keyence) using a 60X Plan‐Apochromat oil objective (NA 1.4, Keyence). Images were cropped and processed using Fiji.
Hela cells (15,000) were seeded into a 96-well plate. Cells were treated with suitable peptide concentrations diluted in the corresponding serum-free culture medium. After 1 h peptide incubation under standard growth conditions, the positive control was either directly treated with lysis solution or the supernatant was exchanged for serum-free culture medium and the plate was incubated for further 5 h under growing conditions. The CytoTox-ONE™ Reagent was added and incubated at RT for 10 minutes. Finally, the Stop Solution was added and the fluorescence was measured at 595 nm (λex = 550 nm) on an infinite M200 plate reader (Tecan) and normalized to the positive control cells.
Red blood cells (RBCs) were washed three times in PBS by centrifug ing at 4 °C and 3,000 x g for 5 min and diluted to 5% in PBS. The desired peptide concentrations diluted in PBS were added into a 96-well plate. Next, 5% RBCs in PBS were added into the wells and incubated for 24 h at 37 °C and 5% CO2. As a positive control, RBCs were mixed with 10% Triton X-100 in PBS. […] Lastly, the absorption (λ=560 nm) was measured on the infinite M200 plate reader (Tecan). For the evaluation, the measured absorption of the Triton-X-100 treatment was set to a hemolysis rate […]

GLRKRLRKFRNKKMDHHCPW-NH2 [DC‐2, CPP sC18* fused to the DHHC motif derived from ZDHHC2/3/6/7/15/16/20]
effect of blocking cell surface thiols (DTNB) on cellular uptake (HeLa cells [1]; 5 min 1.2 mM DTNB, then 1 μM CF‐labeled peptide with DTNB 30 min, flow cytometry, n = 3 (Figure S8C)): no significant difference
effect of pretreatment with unlabeled DC‐2 on peptide uptake (HeLa cells [1]; 30 min 5 μM unlabeled DC‐2, then 30 min 5 μM CF‐DC‐2, flow cytometry, n = 3 (Figure S5E)): no significant difference in the quantity of peptide uptake
cellular uptake in medium lacking L‐cystine (HeLa cells [1]; 30 min, 5 µM CF-DC-2, flow cytometry, n = 3 (Figure S8B)): slightly increased
cellular uptake (in words) (HeLa cells [1]; 30 min, 5 μM CF‐labeled peptides, serum-free medium, 37 °C, flow cytometry, n ≥ 3 (Figure 3D, 5C)): internalized to a higher extent compared to DC‐4
cellular uptake (in words) (MDA‐MB‐231): internalized to a higher extent compared to DC‐4
cytotoxicity (cell viability) (HFF‐1 cells): most active peptide
time‐lapse cellular uptake (HeLa cells [2]; 5 μM CF-DC-2, imaged every 10 sec for 30 min (Video 1)): rapid cellular uptake
intracellular uptake pattern (HeLa cells [2]; 30 min, 5 μM CF‐labeled peptides, confocal laser scanning microscopy (Figure 3G)): diffuse cytosolic pattern
